This note sets out measurements from patent US20220184077A1, “ANTI-VIRAL ACTIVITY OF VPS34 INHIBITORS” (Deciphera Pharmaceuticals, LLC, priority 2020, published 2022).

Read-outs that look alike come from different tables or passages of the source.

The nature of series [1]: in vitro. The format is cell-based. The following applies: African green monkey. As to the method:
Compound cytotoxicity (CC50) is assessed in a BSL-2 counter screen as follows: Host cells in media are added in 25 μl aliquots (4000 cells/well) to each well of assay ready plates prepared with test compounds as above. […] DMSO is maintained at a constant concentration for all wells (0.3%) as dictated by the dilution factor of stock test compound concentrations. After incubating plates at 37° C./5% CO2 and 90% humidity for 72 hours, 30 μl Cell Titer-Glo (Promega) is added to each well. Luminescence is read using a BMG PHERAstar plate reader following incubation at room temperature for 10 minutes to measure cell viability.

Series [2] is described as follows: in vitro. The following applies: human.
Series [3] deals with coronavirus USA_WA1/2020 SARS CoV-2. Briefly: SARS CoV-2 CPE assay for antiviral activity (Vero E6 host cells, Cell Titer-Glo). The format is cell-based. The following applies: read-out: IC50 for inhibition of SARS CoV-2 mediated cell killing. (In general: ATP-based viability assays read luminescence as a measure of living cells.)
The test system of the next series is SARS-CoV-2. In words: microbe, parasite or virus in culture. The format is cell-based. The following applies: Severe acute respiratory syndrome coronavirus 2, A549-ACE2, 48 h; read-out: IC50 for inhibition of SARS CoV-2 mediated cell killing.
Setting [4] is: Vero C1008, Vero E6 cells, 72 hours, 10-point dose response, high concentration 15 μM.

The term IC50 denotes the concentration needed to halve the response being measured. `Cc1nccc(Nc2cc(-c3cc(-c4cccnc4C(F)(F)F)[nH]c(=O)c3)ccn2)n1` [Compound 1]: the CC50 at 72 h in “in vitro [1]” was over 30 µM. The CC50 in the series “in vitro [2]” was 2 µM. Besides, the half-maximal inhibitory concentration (IC50) in series [3] (setting [4]) is 0.12 µM; in the series with SARS-CoV-2 it was 0.059 µM.
`Cc1nccc(Nc2cc(-c3cc(-c4ccccc4Cl)[nH]c(=O)c3)ccn2)n1` [Compound 2] gave a CC50 at 72 h in “in vitro [1]” of 0.482 µM. For the same compound, the CC50 in “in vitro [2]” amounted to 0.159 µM. In addition, the IC50 (in series [3] (setting [4]); with SARS-CoV-2) was under 0.02 µM each time.
Compound `Cc1nccc(Nc2cc(-c3cc(-c4ccccc4C(F)(F)F)n(C)c(=O)c3)ccn2)n1` [Compound 3] yielded a CC50 at 72 h in the series “in vitro [1]” of 1960 µM. For the same compound, the CC50 in “in vitro [2]” is 1370 µM. Further, the IC50 is 0.036 µM in series [3] (Vero C1008, 72 h) and under 0.02 µM in the series with SARS-CoV-2.
`CCS(=O)(=O)N1CCN(c2cc(-c3ccnc(Nc4ccnc(C)n4)c3)cc(=O)[nH]2)C(C(F)(F)F)C1` (stereo not shown) [Compound 4]: the CC50 at 72 h in the series “in vitro [1]” was determined as 2760 µM. The CC50 in the series “in vitro [2]” came to 0.557 µM. Moreover, the IC50 in series [3] (Vero C1008, 72 h) came out at 0.109 µM; in the series on SARS-CoV-2, 0.035 µM.
